# Laboratory results published in BindingDB's records for doi:10.1021/jm00034a016 (Merck Research Laboratories, 1994).
# Molecular target: T1, Dimer of Gag-Pol polyprotein [489-587] (Human immunodeficiency virus 1, UniProt P12497)
# T1 construct: 489-587
# Assay: Protease Inhibition Assay
# Conditions: pH 5.5; 30 °C
# Description: The IC50 values for the compounds were determined using purified HIV-1 Protease. Inhibition of the cleavage of the peptide H-Val-Ser-Gln-Asn-(L-beta-napthylalanine)-Pro-Ile-Val-OH was assessed at 30 °C, pH = 5.5 with [Enzyme] = 30 pM for 1 h, using HPLC with UV detection for quantification of the products. For the IC50 data a substrate concentration of 0.4 mg/mL was used, and data was fit to a four parameter sigmoidal equation.
row,SMILES,IC50
1,"C[C@@H]1OCC[C@@H]1OC(=O)N[C@@H](Cc1ccccc1)[C@H](O)CN1C[C@H]2CCCC[C@H]2C[C@H]1C(=O)NC(C)(C)C [(2S,3S)-2-methyloxolan-3-yl N-[(2S,3R)-4-[(3S,4aS,8aS)-3-(tert-butylcarbamoyl)-decahydroisoquinolin-2-yl]-3-hydroxy-1-phenylbutan-2-yl]carbamate]",52.4 nM
2,C[C@H]1OCC[C@H]1OC(=O)N[C@@H](Cc1ccccc1)[C@H](O)CN1C[C@H]2CCCC[C@H]2C[C@H]1C(=O)NC(C)(C)C [Isoquinoline furanyl urethane analog],169 nM
3,"C[C@H]1[C@@H](OC(=O)N[C@@H](Cc2ccccc2)[C@H](O)CN2C[C@H]3CCCC[C@H]3C[C@H]2C(=O)NC(C)(C)C)CCS1(=O)=O [N-tert-butyldecahydro-2-[2(R)-hydroxy-4-phenyl-3(S)-[[[[2 (S)-methyl-(3 S)-l , l-dioxotetrahydrothiophene-3-yl]-oxy]carbonyl]amino]butyl]-(4aS,8aS)-isoquinoline-3(S)-carboxamide]",11.4 nM
4,"C[C@@H]1[C@H](OC(=O)N[C@@H](Cc2ccccc2)[C@H](O)CN2C[C@H]3CCCC[C@H]3C[C@H]2C(=O)NC(C)(C)C)CCS1(=O)=O [N-tert-butyldecahydro-2-[2(R)-hydroxy-4-phenyl-3(S)-[[[[4 (S)-methyl-(3 R)-l , l-dioxotetrahydrothiophene-3-yl]-oxy]carbonyl]amino]butyl]-(4aS,8aS)-isoquinoline-3(S)-carboxamide]",22.3 nM
